Assay results reported in ChEMBL document CHEMBL4308841, “Synthesis, in vitro antiproliferative activity, and kinase inhibitory effects of pyrazole-containing diarylureas and diarylamides” (Eur J Med Chem, 2018).

What was measured:
[1] = tested on: HCT-116; test: Growth inhibition of human HCT116 cells assessed as cell growth at 100 uM incubated for 48 hrs by sulforhodamine B assay relative to control; assay type: functional; settings: HCT-116, 48 h, read-out: Activity
[2] = tested on: HL-60(TB); test: Growth inhibition of human HL-60(TB) cells assessed as cell growth at 1 uM incubated for 48 hrs by sulforhodamine B assay relative to control; assay type: functional; settings: HL-60, 48 h, read-out: Activity
[3] = tested on: T47D; test: Growth inhibition of human T47D cells incubated for 48 hrs by sulforhodamine B assay; assay type: functional, cell-based
[4] = tested on: M14; test: Growth inhibition of human M14 cells assessed as cell growth at 1 uM incubated for 48 hrs by sulforhodamine B assay relative to control; assay type: functional; settings: M14, 48 h, read-out: Activity
[5] = tested on: RXF 393; test: Growth inhibition of human RXF393 cells assessed as cell growth at 0.01 uM incubated for 48 hrs by sulforhodamine B assay relative to control; assay type: functional; settings: RXF 393, 48 h, read-out: Activity
[6] = tested on: MDA-MB-468; test: Growth inhibition of human MDA-MB-468 cells assessed as cell growth at 1 uM incubated for 48 hrs by sulforhodamine B assay relative to control; assay type: functional; settings: MDA-MB-468, 48 h, read-out: Activity
[7] = tested on: Malme-3M; test: Growth inhibition of human MALME-3M cells assessed as cell growth at 0.01 uM incubated for 48 hrs by sulforhodamine B assay relative to control; assay type: functional; settings: read-out: Activity
[8] = tested on: SNB-75; test: Growth inhibition of human SNB75 cells incubated for 48 hrs by sulforhodamine B assay; assay type: functional, cell-based; settings: SNB-75, 48 h
[9] = tested on: U-251; test: Growth inhibition of human U251 cells assessed as cell growth at 0.1 uM incubated for 48 hrs by sulforhodamine B assay relative to control; assay type: functional; settings: U-251, 48 h, read-out: Activity
[10] = tested on: SK-MEL-28; test: Growth inhibition of human SK-MEL-28 cells incubated for 48 hrs by sulforhodamine B assay; assay type: functional, cell-based; settings: SK-MEL-28, 48 h
[11] = tested on: K562; test: Growth inhibition of human K562 cells assessed as cell growth at 0.01 uM incubated for 48 hrs by sulforhodamine B assay relative to control; assay type: functional; settings: K562, 48 h, read-out: Activity
[12] = tested on: SR; test: Growth inhibition of human SR cells assessed as cell growth at 100 uM incubated for 48 hrs by sulforhodamine B assay relative to control; assay type: functional; settings: read-out: Activity
[13] = tested on: UACC-257; test: Growth inhibition of human UACC257 cells incubated for 48 hrs by sulforhodamine B assay; assay type: functional, cell-based; settings: UACC-257, 48 h
[14] = tested on: KM12; test: Growth inhibition of human KM12 cells incubated for 48 hrs by sulforhodamine B assay; assay type: functional, cell-based; settings: KM12, 48 h
[15] = tested on: HT-29; test: Growth inhibition of human HT-29 cells assessed as cell growth at 1 uM incubated for 48 hrs by sulforhodamine B assay relative to control; assay type: functional; settings: HT-29, 48 h, read-out: Activity
[16] = tested on: CAKI-1; test: Growth inhibition of human Caki1 cells assessed as cell growth at 0.01 uM incubated for 48 hrs by sulforhodamine B assay relative to control; assay type: functional; settings: CAKI-1, 48 h, read-out: Activity
[17] = tested on: HL-60(TB); test: Growth inhibition of human HL-60(TB) cells assessed as cell growth at 100 uM incubated for 48 hrs by sulforhodamine B assay relative to control; assay type: functional; settings: HL-60, 48 h, read-out: Activity
[18] = tested on: PC-3; test: Growth inhibition of human PC3 cells assessed as cell growth at 1 uM incubated for 48 hrs by sulforhodamine B assay relative to control; assay type: functional; settings: PC-3, 48 h, read-out: Activity
[19] = tested on: MDA-MB-231; test: Growth inhibition of human MDA-MB-231 cells incubated for 48 hrs by sulforhodamine B assay; assay type: functional, cell-based; settings: MDA-MB-231, 48 h
[20] = tested on: HT-29; test: Growth inhibition of human HT-29 cells assessed as cell growth at 0.01 uM incubated for 48 hrs by sulforhodamine B assay relative to control; assay type: functional; settings: HT-29, 48 h, read-out: Activity
[21] = tested on: MOLT-4; test: Growth inhibition of human MOLT4 cells assessed as cell growth at 100 uM incubated for 48 hrs by sulforhodamine B assay relative to control; assay type: functional; settings: MOLT-4, 48 h, read-out: Activity
[22] = tested on: A549; test: Growth inhibition of human A549/ATCC cells incubated for 48 hrs by sulforhodamine B assay; assay type: functional, cell-based; settings: A549, 48 h
[23] = tested on: NCI/ADR-RES; test: Growth inhibition of human NCI/ADR-RES cells assessed as cell growth at 100 uM incubated for 48 hrs by sulforhodamine B assay relative to control; assay type: functional; settings: read-out: Activity
[24] = tested on: UO-31; test: Growth inhibition of human UO31 cells incubated for 48 hrs by sulforhodamine B assay; assay type: functional, cell-based; settings: UO-31, 48 h
[25] = tested on: MOLT-4; test: Growth inhibition of human MOLT4 cells assessed as cell growth at 0.1 uM incubated for 48 hrs by sulforhodamine B assay relative to control; assay type: functional; settings: MOLT-4, 48 h, read-out: Activity
[26] = tested on: CCRF-CEM; test: Growth inhibition of human CCRF-CEM cells assessed as cell growth at 100 uM incubated for 48 hrs by sulforhodamine B assay relative to control; assay type: functional; settings: read-out: Activity
[27] = tested on: IGROV-1; test: Growth inhibition of human IGROV1 cells assessed as cell growth at 0.1 uM incubated for 48 hrs by sulforhodamine B assay relative to control; assay type: functional; settings: IGROV-1, 48 h, read-out: Activity
[28] = tested on: MCF7; test: Growth inhibition of human MCF7 cells assessed as cell growth at 1 uM incubated for 48 hrs by sulforhodamine B assay relative to control; assay type: functional; settings: MCF7, 48 h, read-out: Activity
[29] = tested on: HL-60(TB); test: Growth inhibition of human HL-60(TB) cells assessed as cell growth at 0.01 uM incubated for 48 hrs by sulforhodamine B assay relative to control; assay type: functional; settings: HL-60, 48 h, read-out: Activity
[30] = read-out: LC50 (the source's name)
[31] = read-out: pLC50 (the source's name) (converted)

## COc1cc(Cl)cc(-c2nn(-c3cccc(NC(=O)Nc4ccc(Cl)c(C(F)(F)F)c4)c3)cc2-c2ccncc2)c1
[1]
  growth at 100 µM: -94%
[2]
  growth at 1 µM: 72%
[3]; read-out: GI50
  GI50: 1.25 µM
[3]; [30]
  CC50: > 100 µM
[3]; read-out: TGI
  TGI: 80.2 µM
[3]; read-out: pGI50 (converted)
  GI50: 1.26 µM
[3]; [31]
  CC50: > 100 µM
[3]; read-out: pTGI (converted)
  TGI: 7.94 µM
[4]
  growth at 1 µM: 65%
[5]
  growth at 0.01 µM: 97%
[6]
  growth at 1 µM: 50%
[7]
  growth at 0.01 µM: 94%
[8]; read-out: GI50
  GI50: 1.77 µM
[8]; [30]
  CC50: > 100 µM
[8]; read-out: TGI
  TGI: 11.1 µM
[8]; read-out: pGI50 (converted)
  GI50: 1.78 µM
[8]; [31]
  CC50: > 100 µM
[8]; read-out: pTGI (converted)
  TGI: 11.2 µM
[9]
  growth at 0.1 µM: 92%
[10]; read-out: GI50
  GI50: 2.41 µM
[10]; [30]
  CC50: 5.41 µM
[10]; read-out: TGI
  TGI: 84.1 µM
[10]; read-out: pGI50 (converted)
  GI50: 2.4 µM
[10]; [31]
  CC50: 53.7 µM
[10]; read-out: pTGI (converted)
  TGI: 4.17 µM
[11]
  growth at 0.01 µM: 94%
[12]
  growth at 100 µM: -30%
[13]; read-out: GI50
  GI50: 1.59 µM
[13]; [30]
  CC50: 1.55 µM
[13]; read-out: TGI
  TGI: 49.3 µM
[13]; read-out: pGI50 (converted)
  GI50: 1.91 µM
[13]; [31]
  CC50: 18.6 µM
[13]; read-out: pTGI (converted)
  TGI: 2.95 µM
[14]; read-out: GI50
  GI50: 0.555 µM
[14]; [30]
  CC50: 4 µM
[14]; read-out: TGI
  TGI: 44.4 µM
[14]; read-out: pGI50 (converted)
  GI50: 0.55 µM
[14]; [31]
  CC50: 40.7 µM
[14]; read-out: pTGI (converted)
  TGI: 4.47 µM
[15]
  growth at 1 µM: 55%
[16]
  growth at 0.01 µM: 98%
[17]
  growth at 100 µM: -22%
[18]
  growth at 1 µM: 14%
[19]; read-out: GI50
  GI50: 1.44 µM
[19]; [30]
  CC50: 9.52 µM
[19]; read-out: TGI
  TGI: 37.4 µM
[19]; read-out: pGI50 (converted)
  GI50: 1.45 µM
[19]; [31]
  CC50: 9.77 µM
[19]; read-out: pTGI (converted)
  TGI: 3.72 µM
[20]
  growth at 0.01 µM: 101%
[21]
  growth at 100 µM: -28%
[22]
  IC50: 0.68 µM
[22]; read-out: GI50
  GI50: 0.676 µM
[22]; [30]
  CC50: 4.32 µM
[22]; read-out: TGI
  TGI: 10.6 µM
[22]; read-out: pGI50 (converted)
  GI50: 0.676 µM
[22]; [31]
  CC50: 46.8 µM
[22]; read-out: pTGI (converted)
  TGI: 10.7 µM
[23]
  growth at 100 µM: -15%
[24]
  IC50: 1.66 µM
[24]; read-out: GI50
  GI50: 1.56 µM
[24]; [30]
  CC50: 95.4 µM
[24]; read-out: TGI
  TGI: 10.9 µM
[24]; read-out: pGI50 (converted)
  GI50: 1.66 µM
[24]; [31]
  CC50: 97.7 µM
[24]; read-out: pTGI (converted)
  TGI: 11 µM
[25]
  growth at 0.1 µM: 57%
[26]
  growth at 100 µM: -29%
[27]
  growth at 0.1 µM: 99%
[28]
  growth at 1 µM: 50%
[29]
  growth at 0.01 µM: 96%
